Data reported in patent US20230028441A1, “NOVEL HETEROARYL-TRIAZOLE COMPOUNDS AS PESTICIDES” (Bayer Aktiengesellschaft, priority 2019, published 2023).

Assays:
Type in all cases: in vivo
[1] = system: green peach aphid (Myzus persicae); test: Myzus persicae oral test; details: 120 h
Protocol: Solvent: 100 parts by weight acetone
To produce a suitable preparation of active compound, 1 part by weight of active compound is mixed with the stated amount of solvent, and the concentrate is diluted with water to the desired concentration.
50 μL compound solution is filled in microtiter plates and 150 μL IPL41 insect medium (33%+15% sugar) is added to obtain a total volume of 200 μL per well. Afterwards the plates are sealed with parafilm through which a mixed population of the green peach aphid (Myzus persicae) can suck on the compound preparation.
After 5 days mortality in % is determined. 100% means all aphids have been killed and 0% means none of the aphids have been killed.

[2] = system: larvae of the southern green stink bug (Nezara viridula); test: Nezara viridula spray test; details: in Hordeum vulgare, 96 h
In short: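 Percent mortality of southern green stink bug larvae read 4 days after spraying infested Hordeum vulgare. Test solutions: compound in acetone plus dimethylformamide, diluted with emulsifier-containing water (1000 ppm alkylarylpolyglycol ether).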

[3] = system: larvae of the banded cucumber beetle (Diabrotica balteata); test: Diabrotica balteata spray test; details: 168 h, after 7 days, wheat seeds, read-out: efficacy (seedlings grown up); for pest or weed control at 32 µg/disc, 100 g/ha: 100 g/ha (=32 μg/well)
In short: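 Efficacy (%) read at day 7: 100% means seedlings grew like untreated, uninfested controls; 0% means no seedlings grew. Wheat seeds germinated 1 day on agar, sprayed with emulsified compound solution (1000 ppm emulsifier in water), then each well infested with 10-20 larvae.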

[4] = system: adult cat fleas (Ctenocephalides felis); test: Ctenocephalides felis in-vitro contact test, adult cat flea; details: 5 μg/cm^2 (=500 g/ha), after 48 hours, read-out: efficacy (fleas dead or moribund)
Protocol: (§1) 9 mg compound is solved in 1 mL acetone and diluted with acetone to the desired concentration. 250 μL of the test solution is filled in 25 mL glass test tubes and homogeneously distributed on the inner walls by rotation and tilting on a shaking device (2 h at 30 rpm). With a compound concentration of 900 ppm, an inner surface of 44.7 cm^2 and a homogeneous distribution, a dose of 5 μg/cm^2 is achieved.
(§2) After the solvent has evaporated, each test tube is filled with 5-10 adult cat fleas (Ctenocephalides felis), closed with a perforated lid and incubated in a lying position at room temperature and relative humidity. After 48 hours efficacy is determined. The fleas are patted on the ground of the tubes and are incubated on a heating plate at 45-50° C. for at most 5 minutes. Immotile or uncoordinated moving fleas, which are not able to escape the heat by climbing upwards, are marked as dead or moribund.
An efficacy of 100% means all fleas are dead or moribund; 0% means no fleas are dead or moribund.

[5] = system: fall armyworm larvae (Spodoptera frugiperda); test: Spodoptera frugiperda spray test (maize leaf sections); details: 168 h
In short: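 Percent kill of Spodoptera frugiperda larvae was recorded 7 days after infesting dried, treated maize leaf sections. Spray solutions were made from an acetone/DMF compound preparation diluted with 1000 ppm emulsifier-containing water.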

[6] = system: cattle tick larvae (Rhipicephalus microplus), strain Parkhurst, resistant against synthetic pyrethroids; test: Rhipicephalus (Boophilus) microplus in-vitro contact test, larval cattle tick; details: 5 μg/cm^2 (=500 g/ha), after 48 hours, read-out: efficacy (larvae dead or moribund)
In short: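 Efficacy, 100% meaning all larvae dead or moribund, was judged at 48 h from loss of negative geotactic climbing. Larvae of the Parkhurst strain, 20–50 per tube, were exposed at 27° C and 85% humidity to acetone-coated tube surfaces; 900 ppm corresponded to 5 μg/cm^2.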

[7] = system: adult engorged female ticks (Rhipicephalus microplus); test: Rhipicephalus (Boophilus) microplus injection test; details: 168 h, egg deposition after 7 days, read-out: efficacy (infertile eggs); for pest or weed control at 0.004 mg: 4 μg/animal; for pest or weed control at 0.02 mg: 20 μg/animal
In short: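 Efficacy is the share of infertile eggs: 100% means none are fertile, 0% means all are fertile. Egg deposition was checked 7 days after injecting 1 μL of DMSO-diluted compound into the abdomen of five engorged female R. microplus, with doubtful eggs kept about 42 days to hatching. The stock was 10 mg in 0.5 mL DMSO.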

[8] = system: adult unfed cat fleas (Ctenocephalides felis); test: Ctenocephalides felis oral test; details: 48 h, 100 ppm in cattle blood, after 2 days
In short: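 Percent flea mortality recorded at 2 days. Compound was dissolved in dimethyl sulfoxide and diluted into cattle blood, which ~20 unfed adult cat fleas ingested through parafilm from a 37°C-heated chamber, their own chamber kept at room temperature.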

[9] = system: adult brown dog ticks (Rhipicephalus sanguineus); test: Rhipicephalus sanguineus in-vitro contact test with adult brown dog ticks; details: after 48 hours, read-out: efficacy (ticks dead or moribund)
Protocol: as §1
as §2, with “brown dog ticks (Rhipicephalus sanguineus),” for “cat fleas (Ctenocephalides felis),”, “ticks” for “fleas”, “ticks,” for “fleas,”
An efficacy of 100% means all ticks are dead or moribund; 0% means no ticks are dead or moribund.

[10] = system: brown planthopper (Nilaparvata lugens); test: Nilaparvata lugens spray test; details: in Oryza sativa, 96 h
Protocol: Solvent: 78.0 parts by weight of acetone • • 1.5 parts by weight of dimethylformamide
Emulsifier: alkylarylpolyglycol ether
To produce a suitable preparation of active compound, 1 part by weight of active compound is mixed with the stated amount of solvents and is diluted with water, containing an emulsifier concentration of 1000 ppm, to the desired concentration. Further test concentrations are prepared by dilution with emulsifier containing water.
Rice plants (Oryza sativa) are sprayed with a preparation of the active ingredient of the desired concentration and the plants are infested with the brown planthopper (Nilaparvata lugens).
After 4 days mortality in % is determined. 100% means all planthoppers have been killed and 0% means none of the planthoppers have been killed.

Compound | mortality at 500 g/ha [2] | pest or weed control at 32 µg/disc, 100 g/ha [3] | pest or weed control at 5 µg/cm2 [4] | pest or weed control at 5 µg/cm2 [6] | pest or weed control at 0.004 mg [7] | mortality at 100 g/ha [5] | mortality at 500 g/ha [10] | other results
CSc1nc(C(C)NC(=O)c2cc(Cl)cc(S(C)(=O)=O)c2)n(-c2ccc(Cl)cn2)n1 (racemic) [I-059, 3-chloro-N-[1-[2-(5-chloro-2-pyridyl)-5-methylsulfanyl-1,2,4-triazol-3-yl]ethyl]-5-methylsulfonyl-benzamide] | 100% | 100% | 80% | 100% | 100% |  |  | mortality at 4 ppm [1]: 100%; mortality at 100 g/ha [2]: 100%; pest or weed control at 160 µg/disc, 500 g/ha ([3]; 500 g/ha (=160 μg/well)): 100%; mortality at 500 g/ha [5]: 100%; pest or weed control at 0.02 mg [7]: 100%
CC(NC(=O)c1cc(Cl)cc(C(F)(F)F)c1)c1nc(C#N)nn1-c1ccc(Cl)cn1 (racemic) [I-071, 3-chloro-N-[1-[2-(5-chloro-2-pyridyl)-5-cyano-1,2,4-triazol-3-yl]ethyl]-5-(trifluoromethyl)benzamide] |  |  | 80% | 90% | 100% |  |  | pest or weed control at 0.02 mg [7]: 100%
CC(NC(=O)c1cc(Br)cc(Br)c1)c1nc(N)nn1-c1ccc(C(=O)N2CCOCC2)cn1 (racemic) [I-107, N-[1-[5-amino-2-[5-(morpholine-4-carbonyl)-2-pyridyl]-1,2,4-triazol-3-yl]ethyl]-3,5-dibromo-benzamide] |  |  | 90% |  |  |  |  | mortality at 4 ppm [1]: 90%
CC(NC(=O)c1cc(Cl)cc(C(F)(F)F)c1)c1nc(C(N)=O)nn1-c1ccc(C#N)cn1 (stereo not shown) [I-075] |  | 100% | 90% | 100% | 100% |  |  | mortality at 100 ppm [8]: 100%
CC(NC(=O)c1cc(Br)cc(C(F)(F)F)c1)c1nc(N(C)C(=O)OC(C)(C)C)nn1-c1ncccn1 (stereo not shown) [I-089] |  | 100% | 90% |  | 100% | 100% |  | mortality at 4 ppm [1]: 100%; mortality at 100 ppm [8]: 100%
CC(NC(=O)c1cc(Br)cc(C2(C(F)(F)F)CC2)c1)c1nc(N)nn1-c1ncccn1 (stereo not shown) [I-112] |  |  | 90% | 100% |  |  |  | 
CC(NC(=O)c1cc(C(F)(F)F)cc(C(F)(F)F)c1)c1nc(N)nn1-c1ccc(C(=O)N2CCOCC2)cn1 (stereo not shown) [I-115] | 100% |  | 100% | 100% |  | 100% |  | pest or weed control at 1 µg/cm2, 100 g/ha ([9]; 1 μg/cm^2 (=100 g/ha)): 100%; pest or weed control at 5 µg/cm2, 500 g/ha ([9]; 5 μg/cm^2 (=500 g/ha)): 100%
CON(C)c1nc([C@H](C)NC(=O)c2cc(C(F)(F)F)cc(C(F)(F)F)c2)n(-c2ncccn2)n1 [I-149, N-[(1S)-1-[5-[methoxy(methyl)amino]-2-pyrimidin-2-yl-1,2,4-triazol-3-yl]ethyl]-3,5-bis(trifluoromethyl)benzamide] | 100% | 100% |  |  |  | 100% | 100% | 
CON(C)c1nc([C@H](C)NC(=O)c2cc(Br)cc(OC(F)(F)F)c2)n(-c2ncccn2)n1 [I-151] | 100% | 100% |  |  |  | 100% | 100% | 
CNc1nc([C@H](C)NC(=O)c2cc(C(F)(F)F)cc(C(F)(F)F)c2)n(-c2ccc(C#N)cn2)n1 [I-168] | 100% | 100% |  |  |  | 100% | 100% | 
C[C@H](NC(=O)c1cc(Cl)cc(S(C)(=O)=O)c1)c1nc(N)nn1-c1ncccn1 [I-169] | 100% |  |  |  |  |  | 100% | 
